The text below walks through data of patent US20010002252A1, “TOOTH WHITENING PREPARATIONS” (priority 1994, published 2001).

The assay is described as follows: Tooth whitening by brushing of extracted bovine teeth with toothpaste slurry, colorimeter L value. On the procedure:
Tooth whitening was measured by the following process:
Whitening was determined using a modification to a system normally employed in the dental arts for determining the abrasivity of dentifrices.
Bovine jaws were obtained at a local abattoir and the teeth were extracted in their native state; no pre-cleaning was done. Teeth were mounted in a cap with dental acrylic so as to fit the format of a colorimeter and the brushing instrument: a detailed description is given below. An initial brushing was done with a slurry of Crest Regular toothpaste and an Oral B40, medium bristle, toothbrush. Then an initial L value was determined on a colorimeter (Hunter). This was designated as the initial whiteness value. The wear tester device was manufactured by Ramè-Hart, of Mountain Lakes, N.J. This machine has often been used to test the abrasivity of dental preparations. Tooth brushes were mounted and the teeth and brushes aligned. A 1:3 slurry of paste and water was poured into the trays and brushing commenced for a total of six hours. The slurry was replaced hourly. At 3 and 6 hours L value determinations were made. This was done by first rinsing the teeth with deionized water, then placing them in a closed container at 100% humidity for 1 hours, then taking a reading on the colorimeter to obtain a 3 hour and 6 hour L value.
Toothpaste slurries were tested for their whitening effect. […]

Turning to `O=P(O)(O)OP(=O)(O)OP(=O)(O)O` [STP, sodium tripolyphosphate], under “10% or higher STP in Table I toothpaste base, 1:3 slurry of paste and water, brushing 6 hours, L value at 3 and 6 hours”, the “tooth whitening as compared with the placebo base” value was “superior tooth whitening”. The “pH at which the best whitening results were obtained” value (STP toothpaste slurries, pH adjusted with 3M NaOH or 3M HCl) was “around 8.0”.
